In ChEMBL document CHEMBL1201862, “PubChem BioAssay data set” (2004):
Active and inactive are the calls of the source.

Key:
[1] = NIH-3T3 fibroblast cytotoxicity, dose response, cytotoxicity control, cell-based, fluorescence, Alamar Blue, secondary assay (AID 2327); format: functional;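 further: NIH-3T3 mouse fibroblasts cultured with fluconazole at 8 µg/mL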
cells = format: functional, cell-based
BJ [2] = assay: cells; format: functional, cell-based; conditions: Homo sapiens
BJ [3] = assay: cytotoxicity toward BJ-TERT-LT-ST fibroblasts, dose response, cell-based, RAS-independent, luminescence (AID 1935); format: functional; conditions: Homo sapiens;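 further: BJ fibroblasts immortalized with TERT plus LT and ST oncogenes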
[4] = cytotoxicity in HEK-293T cells, dose response, cytotoxicity control for TCR NF-kB inhibitor project, luminescence, T-cell screen hits (AID 489026); format: functional, cell-based;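 further: cells exposed to compound about 14 hours before the viability readout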
Nonstructural protein 1 = Nonstructural protein 1 (Influenza A virus, UniProt Q194T2); format: functional, Influenza A virus (A/California/07/2009(H1N1))
HEK293 = assay: cytotoxicity in HEK293T NF-kB-Luc cells, SAR follow-up, cytotoxicity control for NF-kB activator project, cell-based, resazurin fluorescence (AID 493251); format: functional; conditions: Homo sapiens
BJ [5] = assay: cytotoxicity toward Ras-transformed BJeLR fibroblasts, dose response, cell-based, alamar blue fluorescence, cherrypicked samples (AID 2631); format: functional; conditions: Homo sapiens;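 further: confirmatory dose-response assay in RAS-dependent BJ fibroblasts engineered with TERT, LT and ST, with cytotoxicity read by fluorescence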
INS1 = assay: beta cell apoptosis inhibitors, cytokine rescue, dose response, luminescence, retest (AID 449756); format: functional, cell-based; conditions: Rattus norvegicus;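 further: cell death triggered by IL-1 beta plus TNF-alpha plus IFN-gamma mixture; protective hits raise ATP signal compared with cytokine alone wells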
[6] = HepG2 cell cytotoxicity, dose response, cytotoxicity control for Shn3 inhibitor project, CellTiter-Glo, cherry-picked (AID 624134); format: functional, cell-based
Caspase-3 = target: T1, Caspase-3 (Homo sapiens, UniProt P42574); format: functional;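 further: Dose-response selectivity test against caspase-3 for candidate inhibitors of sentrin-specific proteases (SENPs)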
T1 sequence (P42574 whole entry): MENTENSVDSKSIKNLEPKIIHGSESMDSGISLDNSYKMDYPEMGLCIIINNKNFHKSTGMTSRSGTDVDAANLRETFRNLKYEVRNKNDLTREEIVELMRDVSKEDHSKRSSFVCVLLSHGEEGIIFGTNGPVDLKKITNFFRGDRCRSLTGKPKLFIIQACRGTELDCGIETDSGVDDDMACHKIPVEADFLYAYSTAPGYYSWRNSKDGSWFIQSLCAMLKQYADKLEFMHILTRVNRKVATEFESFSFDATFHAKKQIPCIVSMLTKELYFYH

[7] = target: T2, Sentrin-specific protease 8 (Homo sapiens, UniProt Q96LD8); format: functional;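 further: luminescence read-out of SENP8 inhibition, dose-response confirmation following an ultra-high-throughput screen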
T2 sequence (Q96LD8 whole entry): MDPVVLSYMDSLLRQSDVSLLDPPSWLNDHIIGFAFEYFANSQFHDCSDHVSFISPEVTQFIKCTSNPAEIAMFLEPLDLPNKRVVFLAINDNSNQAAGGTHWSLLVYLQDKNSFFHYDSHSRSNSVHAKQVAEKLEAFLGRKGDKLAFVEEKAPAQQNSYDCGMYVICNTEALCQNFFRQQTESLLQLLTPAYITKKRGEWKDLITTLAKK

Caspase-6 = target: T3, Caspase-6 (Homo sapiens, UniProt P55212); assay: human caspase-6 inhibitors, dose response, biochemical, VEID-R110 fluorescence, cherry-pick (AID 720632)
T3 sequence (P55212 whole entry): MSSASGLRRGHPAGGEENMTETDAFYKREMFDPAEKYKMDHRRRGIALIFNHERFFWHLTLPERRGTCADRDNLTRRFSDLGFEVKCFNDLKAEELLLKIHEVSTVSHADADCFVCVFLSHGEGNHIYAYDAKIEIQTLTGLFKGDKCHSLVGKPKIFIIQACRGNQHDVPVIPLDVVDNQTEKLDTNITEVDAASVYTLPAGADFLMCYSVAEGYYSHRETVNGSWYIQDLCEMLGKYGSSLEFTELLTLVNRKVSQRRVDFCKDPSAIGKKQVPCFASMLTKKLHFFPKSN

Chain of Nonstructural protein 1 (Q194T2 whole entry): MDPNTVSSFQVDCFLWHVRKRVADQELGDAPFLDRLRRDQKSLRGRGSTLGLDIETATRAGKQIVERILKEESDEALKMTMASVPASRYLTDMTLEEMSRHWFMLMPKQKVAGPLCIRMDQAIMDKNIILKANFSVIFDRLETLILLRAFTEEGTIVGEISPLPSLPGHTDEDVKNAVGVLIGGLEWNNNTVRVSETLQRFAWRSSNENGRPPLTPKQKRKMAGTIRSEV

Row | Compound | EC50 [1] | EC50 (cells) | EC50 (BJ [2]) | EC50 (BJ [3]) | IC50 [4] | IC50 (Nonstructural protein 1) | IC50 (HEK293) | EC50 (BJ [5]) | AC50 (INS1) | AC50 [6] | IC50 (Caspase-3) | IC50 [7] | AC50 (Caspase-6)
1 | CCCCC(=O)NC(c1ccc(N(C)C)cc1)c1ccc2cccnc2c1O (stereo not drawn) | 28.4 µM (inconclusive) | 3.94 µM (active) | 3.12 µM (active) | 3.17 µM (inconclusive) | > 80 µM (inactive) | 24.9 µM (active) | 41.2 µM (inactive) | 0.465 µM (active) | 0.626 µM (active) | 2.47 µM (active) | – | – | –
2 | CN(CC(=O)Nc1ccccc1Cl)C(=O)COC(=O)c1ccc([N+](=O)[O-])s1 | – | – | – | – | – | – | – | – | – | – | 6.21 µM (active) | 3.95 µM (active) | 4.3 µM (active)
